Reference: PubChem BioAssay (NCI)
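Here, GI50 denotes the concentration required for 50% inhibition of growth. TGI: concentration producing complete growth inhibition.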

Assays:
Test in all cases: inhibition of tumour cell growth, NCI panel, 384-well format
HT29 colon = test system: HT29 colon
UACC-257 melanoma = test system: UACC-257 melanoma
NCI/ADR-RES ovarian = test system: NCI/ADR-RES ovarian
LOX IMVI melanoma = test system: LOX IMVI melanoma
HCT-15 colon = test system: HCT-15 colon
SF-295 CNS = test system: SF-295 CNS
SNB-19 CNS = test system: SNB-19 CNS
CAKI-1 renal = test system: CAKI-1 renal
BT-549 breast = test system: BT-549 breast
RXF 393 renal = test system: RXF 393 renal
M14 melanoma = test system: M14 melanoma
NCI-H23 lung = test system: NCI-H23 lung
SN12C renal = test system: SN12C renal
786-0 renal = test system: 786-0 renal
EKVX NSCLC = test system: EKVX NSCLC
SK-MEL-5 melanoma = test system: SK-MEL-5 melanoma
HCT-116 colon = test system: HCT-116 colon
SW-620 colon = test system: SW-620 colon
HOP-92 NSCLC = test system: HOP-92 NSCLC
HS 578T breast = test system: HS 578T breast
TK-10 renal = test system: TK-10 renal
HOP-62 NSCLC = test system: HOP-62 NSCLC
NCI-H226 lung = test system: NCI-H226 lung
UACC-62 melanoma = test system: UACC-62 melanoma
COLO 205 colon = test system: COLO 205 colon
PC-3 prostate = test system: PC-3 prostate
UO-31 renal = test system: UO-31 renal
MDA-MB-468 breast = test system: MDA-MB-468 breast
U251 glioblastoma = test system: U251 glioblastoma
NCI-H460 NSCLC = test system: NCI-H460 NSCLC
A549 NSCLC = test system: A549 NSCLC
NCI-H322M lung = test system: NCI-H322M lung
HL-60(TB) leukemia = test system: HL-60(TB) leukemia
RPMI-8226 leukemia = test system: RPMI-8226 leukemia
KM12 colon = test system: KM12 colon
SNB-75 CNS = test system: SNB-75 CNS
MDA-MB-435 melanoma = test system: MDA-MB-435 melanoma
SK-OV-3 ovarian = test system: SK-OV-3 ovarian
HCC-2998 colon = test system: HCC-2998 colon
T-47D breast = test system: T-47D breast
MDA-MB-231 breast = test system: MDA-MB-231 breast
CCRF-CEM leukemia = test system: CCRF-CEM leukemia
OVCAR-3 ovarian = test system: OVCAR-3 ovarian
OVCAR-8 ovarian = test system: OVCAR-8 ovarian
SF-268 CNS = test system: SF-268 CNS
OVCAR-4 ovarian = test system: OVCAR-4 ovarian
NCI-H522 lung = test system: NCI-H522 lung
A498 renal = test system: A498 renal
MALME-3M melanoma = test system: MALME-3M melanoma
K-562 leukemia = test system: K-562 leukemia
ACHN renal = test system: ACHN renal
IGROV1 ovarian = test system: IGROV1 ovarian
MCF7 breast = test system: MCF7 breast
SK-MEL-28 melanoma = test system: SK-MEL-28 melanoma
MOLT-4 leukemia = test system: MOLT-4 leukemia
SF-539 CNS = test system: SF-539 CNS
OVCAR-5 ovarian = test system: OVCAR-5 ovarian
DU-145 prostate = test system: DU-145 prostate

## COc1c(Nc2ncc(Cl)c(N[C@@H]3[C@H]4C=CC(C4)[C@@H]3C(N)=O)n2)ccc2c1CC[C@@H](N1CCOCC1)CC2
HT29 colon
  GI50: 1240 nM
  TGI: 2580 nM
UACC-257 melanoma
  GI50: 1510 nM
  TGI: 3530 nM
NCI/ADR-RES ovarian
  GI50: 1970 nM
  TGI: 4660 nM
LOX IMVI melanoma
  GI50: 1330 nM
  TGI: 2680 nM
HCT-15 colon
  GI50: 2150 nM
  TGI: 10100 nM
SF-295 CNS
  GI50: 1950 nM
  TGI: 10300 nM
SNB-19 CNS
  GI50: 5100 nM
  TGI: 17400 nM
CAKI-1 renal
  GI50: 1350 nM
  TGI: 2780 nM
BT-549 breast
  GI50: 1620 nM
  TGI: 3160 nM
RXF 393 renal
  GI50: 1580 nM
  TGI: 3170 nM
M14 melanoma
  GI50: 817 nM
  TGI: 2570 nM
NCI-H23 lung
  GI50: 1680 nM
  TGI: 5940 nM
SN12C renal
  GI50: 1190 nM
  TGI: 5330 nM
786-0 renal
  GI50: 1480 nM
  TGI: 2940 nM
EKVX NSCLC
  GI50: 1500 nM
  TGI: 4530 nM
SK-MEL-5 melanoma
  GI50: 1370 nM
  TGI: 6790 nM
HCT-116 colon
  GI50: 1270 nM
  TGI: 2620 nM
SW-620 colon
  GI50: 1660 nM
  TGI: 3250 nM
HOP-92 NSCLC
  GI50: 1300 nM
  TGI: 3260 nM
HS 578T breast
  GI50: 1560 nM
  TGI: 2970 nM
TK-10 renal
  GI50: 2290 nM
  TGI: 7860 nM
HOP-62 NSCLC
  GI50: 1700 nM
  TGI: 5360 nM
NCI-H226 lung
  GI50: 676 nM
  TGI: 4670 nM
UACC-62 melanoma
  GI50: 688 nM
  TGI: 2920 nM
COLO 205 colon
  GI50: 1110 nM
  TGI: 2690 nM
PC-3 prostate
  GI50: 2270 nM
  TGI: 8980 nM
UO-31 renal
  GI50: 1560 nM
  TGI: 4900 nM
MDA-MB-468 breast
  GI50: 1280 nM
  TGI: 2990 nM
U251 glioblastoma
  GI50: 1760 nM
  TGI: 6500 nM
NCI-H460 NSCLC
  GI50: 1960 nM
  TGI: 5260 nM
A549 NSCLC
  GI50: 1270 nM
  TGI: 5570 nM
NCI-H322M lung
  GI50: 2750 nM
  TGI: 11500 nM
HL-60(TB) leukemia
  GI50: 1550 nM
  TGI: 3010 nM
RPMI-8226 leukemia
  GI50: 1210 nM
  TGI: 3000 nM
KM12 colon
  GI50: 1680 nM
  TGI: 10400 nM
SNB-75 CNS
  GI50: 1290 nM
  TGI: 2770 nM
MDA-MB-435 melanoma
  GI50: 1700 nM
  TGI: 8330 nM
SK-OV-3 ovarian
  GI50: 1780 nM
  TGI: 7550 nM
HCC-2998 colon
  GI50: 1240 nM
  TGI: 3090 nM
T-47D breast
  GI50: 1940 nM
  TGI: 5310 nM
MDA-MB-231 breast
  GI50: 1540 nM
  TGI: 6140 nM
CCRF-CEM leukemia
  GI50: 1510 nM
  TGI: 3030 nM
OVCAR-3 ovarian
  GI50: 3110 nM
  TGI: 11800 nM
OVCAR-8 ovarian
  GI50: 2700 nM
  TGI: 9480 nM
SF-268 CNS
  GI50: 206 nM
  TGI: 2500 nM
OVCAR-4 ovarian
  GI50: 7050 nM
  TGI: 19600 nM
NCI-H522 lung
  GI50: 1440 nM
  TGI: 3700 nM
A498 renal
  GI50: 1950 nM
  TGI: 10600 nM
MALME-3M melanoma
  GI50: 866 nM
  TGI: 2660 nM
K-562 leukemia
  GI50: 1780 nM
  TGI: 3680 nM
ACHN renal
  GI50: 2160 nM
  TGI: 9250 nM
IGROV1 ovarian
  GI50: 1400 nM
  TGI: 9590 nM
MCF7 breast
  GI50: 1750 nM
  TGI: 11900 nM
SK-MEL-28 melanoma
  GI50: 1540 nM
  TGI: 5220 nM
MOLT-4 leukemia
  GI50: 311 nM
  TGI: 1430 nM
SF-539 CNS
  GI50: 1250 nM
  TGI: 2570 nM
OVCAR-5 ovarian
  GI50: 1350 nM
  TGI: 4580 nM
DU-145 prostate
  GI50: 2880 nM
  TGI: 12300 nM

## O=C(c1ccc(F)c(F)c1Nc1ccc(I)cc1F)N1CC(O)([C@H]2CCCCN2)C1
HT29 colon
  GI50: 185 nM
  TGI: 1350 nM
UACC-257 melanoma
  GI50: 156 nM
  TGI: 428 nM
NCI/ADR-RES ovarian
  GI50: 9210 nM
  TGI: 21300 nM
LOX IMVI melanoma
  GI50: 389 nM
  TGI: 1660 nM
HCT-15 colon
  GI50: 3330 nM
  TGI: 14500 nM
SF-295 CNS
  GI50: 13400 nM
  TGI: 26300 nM
SNB-19 CNS
  GI50: 4050 nM
  TGI: 17300 nM
CAKI-1 renal
  GI50: 994 nM
  TGI: 14400 nM
BT-549 breast
  GI50: 2250 nM
  TGI: 5840 nM
RXF 393 renal
  GI50: 1510 nM
  TGI: 3180 nM
M14 melanoma
  GI50: 51.2 nM
  TGI: 220 nM
NCI-H23 lung
  GI50: 422 nM
  TGI: 2050 nM
SN12C renal
  GI50: 1520 nM
  TGI: 13200 nM
786-0 renal
  GI50: 1240 nM
  TGI: 2590 nM
EKVX NSCLC
  GI50: 2750 nM
  TGI: 12600 nM
SK-MEL-5 melanoma
  GI50: 281 nM
  TGI: 1620 nM
HCT-116 colon
  GI50: 615 nM
  TGI: 2060 nM
SW-620 colon
  GI50: 371 nM
  TGI: 10400 nM
HOP-92 NSCLC
  GI50: 888 nM
  TGI: 2170 nM
HS 578T breast
  GI50: 4160 nM
  TGI: 16300 nM
TK-10 renal
  GI50: 3120 nM
  TGI: 11800 nM
HOP-62 NSCLC
  GI50: 1280 nM
  TGI: 8420 nM
NCI-H226 lung
  GI50: 1640 nM
  TGI: 10200 nM
UACC-62 melanoma
  GI50: 104 nM
  TGI: 378 nM
COLO 205 colon
  GI50: 101 nM
  TGI: 589 nM
PC-3 prostate
  GI50: 5640 nM
  TGI: 16800 nM
UO-31 renal
  GI50: 1610 nM
  TGI: 5390 nM
MDA-MB-468 breast
  GI50: 2730 nM
  TGI: 5070 nM
U251 glioblastoma
  GI50: 2570 nM
  TGI: 11300 nM
NCI-H460 NSCLC
  GI50: 995 nM
  TGI: 2280 nM
A549 NSCLC
  GI50: 807 nM
  TGI: 2610 nM
NCI-H322M lung
  GI50: 1510 nM
  TGI: 13700 nM
HL-60(TB) leukemia
  GI50: 212 nM
  TGI: 1260 nM
RPMI-8226 leukemia
  GI50: 1780 nM
  TGI: 4380 nM
KM12 colon
  GI50: 660 nM
  TGI: 2750 nM
SNB-75 CNS
  GI50: 1620 nM
  TGI: 4340 nM
MDA-MB-435 melanoma
  GI50: 415 nM
  TGI: 11600 nM
SK-OV-3 ovarian
  GI50: 4990 nM
  TGI: 17800 nM
HCC-2998 colon
  GI50: 200 nM
  TGI: 1210 nM
T-47D breast
  GI50: 2650 nM
  TGI: 6460 nM
MDA-MB-231 breast
  GI50: 477 nM
  TGI: 3630 nM
CCRF-CEM leukemia
  GI50: 1930 nM
  TGI: 3570 nM
OVCAR-3 ovarian
  GI50: 3430 nM
  TGI: 13700 nM
OVCAR-8 ovarian
  GI50: 6520 nM
  TGI: 19600 nM
SF-268 CNS
  GI50: 1700 nM
  TGI: 5370 nM
OVCAR-4 ovarian
  GI50: 10400 nM
  TGI: 22200 nM
NCI-H522 lung
  GI50: 4330 nM
  TGI: 16900 nM
A498 renal
  GI50: 1220 nM
  TGI: 2500 nM
MALME-3M melanoma
  GI50: 31.8 nM
  TGI: 118 nM
K-562 leukemia
  GI50: 1170 nM
  TGI: 2420 nM
ACHN renal
  GI50: 1870 nM
  TGI: 15400 nM
IGROV1 ovarian
  GI50: 500 nM
  TGI: 2990 nM
MCF7 breast
  GI50: 1880 nM
  TGI: 3620 nM
SK-MEL-28 melanoma
  GI50: 187 nM
  TGI: 528 nM
MOLT-4 leukemia
  GI50: 1620 nM
  TGI: 3000 nM
SF-539 CNS
  GI50: 1620 nM
  TGI: 3020 nM
OVCAR-5 ovarian
  GI50: 668 nM
  TGI: 11900 nM
DU-145 prostate
  GI50: 3810 nM
  TGI: 14800 nM
